Measured values reported in patent publication US11180455B2, “Compounds for the treatment of pain” (priority 2018, dated 2021).
pEC50: −log10 of the molar value. Read-outs that look alike come from different tables or passages of the source.

What was measured:
Male Sprague-Dawley rats [1] = type: in vivo; conditions: rat
Male Sprague-Dawley rats [2] = conditions: maximum pCO2 within 2 hours of administration, rat, subcutaneous
human μ opioid receptor = human μ opioid receptor (Homo sapiens (Human), UniProt P35372); assay: Alternate functional activity ([35S]GTPγS binding, SPA) assay; type: biochemical; conditions: alternate [35S]GTPγS binding assay (SPA beads), CHO cell membranes expressing human μ opioid receptor
Experimental: The [^35S]GTPγS assay measures the functional properties of a compound by quantifying the level of G-protein activation following agonist binding in studies using stably transfected cells, and is considered to be a measure of the efficacy of a compound. Membranes from CHO (Chinese Hamster Ovary) cells that stably expressed one type of the cloned human opioid receptor human were used in the experiments. The assay buffer consisted of 50 mM Tris-HCl, pH 7.4, 3 mM MgCl2, 0.2 mM EGTA, 5 μM GDP, and 100 mM NaCl. CHO cell membranes stably expressing the human p opioid receptor were pre-incubated with scintillation proximity assay beads from PerkinElmer® (WGA PVT SPA) for 30 minutes, at 8 µg membrane and 350 µg beads in a volume of 0.1 mL per reaction. In a final volume of 0.2 mL, 11 different concentrations of each test compound were incubated with the membrane-SPA bead mixture and a final concentration of 0.020 nM [35S]GTPγS for 1.5 hours with gentle shaking. Reactions were then incubated for 5 hours. Data are the mean EC50 values±S.E.M. EC50 values (nM) for compounds 12, 16, 19, 20, 149, 151, 152, 157, 160, 161, 164-169, 172, 173, 180-197, and 199-207 are shown in Table 1.

## CO[C@@]12CC[C@@]3(C[C@@H]1[C@](C)(O)C(C)(C)C)[C@H]1Cc4ccc(O)c5c4[C@@]3(CCN1CC1CC1)[C@H]2O5 [Buprenorphine, buprenorphine, reference compound]
Male Sprague-Dawley rats [1]; in vivo
  MEMO SC CFA: 0.1 mg/kg

## COC1(c2cccc(C(N)=O)c2)C2CCCC1CN(C1CC3(COC3)C1)C2.O=C(O)C[C@H](O)C(=O)O [Compound 133, 3-((1R,5S,9r)-9-methoxy-3-(2-oxaspiro[3.3]heptan-6-yl)-3-azabicyclo[3.3.1]nonan-9-yl)benzamide (S)-2-hydroxysuccinate]
Male Sprague-Dawley rats [2]
  <60 mmHg @ 10X CFA MEMD: + (resulted in a maximum pCO2 value of less than 60 mmHg within 2 hours of administration)

## CO[C@@]1(c2ccnc(C(N)=O)c2)[C@@H]2CCC[C@H]1CN(Cc1ncc(C)[nH]1)C2.Cl [Compound 153, 4-((1R,5S,9r)-9-methoxy-3-((5-methyl-1H-imidazol-2-yl)methyl)-3-azabicyclo[3.3.1]nonan-9-yl)picolinamide Hydrochloride]
Male Sprague-Dawley rats [1]; minimum dose at which maximal reversal (MEMD) of weight bearing was achieved, subcutaneous administration
  MEMO SC CFA: 1 mg/kg

## CCOC1(c2cccc(C(N)=O)c2)C2CCCC1CNC2 [Compound 160, 3-((1R,5S,9r)-9-ethoxy-3-azabicyclo[3.3.1]nonan-9-yl)benzamide]
Male Sprague-Dawley rats [2]
  <60 mmHg @ 10X CFA MEMD: + (resulted in a maximum pCO2 value of less than 60 mmHg within 2 hours of administration)
Male Sprague-Dawley rats [2]; 100X CFA MEMD dose
  <60 mmHg @ 100X CFA MEMD: + (resulted in a maximum pCO2 value of less than 60 mmHg within 2 hours of administration)

## CCOC1(c2cc(C(N)=O)ccc2F)C2CCCC1CN(C)C2 (stereo not drawn) [Compound 194]
Human μ opioid receptor
  pEC50: 7.12 to 8.00
